This assay concerns the target PIK3CD (Human) (UniProt O00329). Put plainly: Assessment of PI3KCD Kinase Activity.

For orientation: IC50 means the concentration at which inhibition is half-maximal. Lower therefore signals higher potency.

PIK3CD (Human), sequence (O00329 whole entry, looked up): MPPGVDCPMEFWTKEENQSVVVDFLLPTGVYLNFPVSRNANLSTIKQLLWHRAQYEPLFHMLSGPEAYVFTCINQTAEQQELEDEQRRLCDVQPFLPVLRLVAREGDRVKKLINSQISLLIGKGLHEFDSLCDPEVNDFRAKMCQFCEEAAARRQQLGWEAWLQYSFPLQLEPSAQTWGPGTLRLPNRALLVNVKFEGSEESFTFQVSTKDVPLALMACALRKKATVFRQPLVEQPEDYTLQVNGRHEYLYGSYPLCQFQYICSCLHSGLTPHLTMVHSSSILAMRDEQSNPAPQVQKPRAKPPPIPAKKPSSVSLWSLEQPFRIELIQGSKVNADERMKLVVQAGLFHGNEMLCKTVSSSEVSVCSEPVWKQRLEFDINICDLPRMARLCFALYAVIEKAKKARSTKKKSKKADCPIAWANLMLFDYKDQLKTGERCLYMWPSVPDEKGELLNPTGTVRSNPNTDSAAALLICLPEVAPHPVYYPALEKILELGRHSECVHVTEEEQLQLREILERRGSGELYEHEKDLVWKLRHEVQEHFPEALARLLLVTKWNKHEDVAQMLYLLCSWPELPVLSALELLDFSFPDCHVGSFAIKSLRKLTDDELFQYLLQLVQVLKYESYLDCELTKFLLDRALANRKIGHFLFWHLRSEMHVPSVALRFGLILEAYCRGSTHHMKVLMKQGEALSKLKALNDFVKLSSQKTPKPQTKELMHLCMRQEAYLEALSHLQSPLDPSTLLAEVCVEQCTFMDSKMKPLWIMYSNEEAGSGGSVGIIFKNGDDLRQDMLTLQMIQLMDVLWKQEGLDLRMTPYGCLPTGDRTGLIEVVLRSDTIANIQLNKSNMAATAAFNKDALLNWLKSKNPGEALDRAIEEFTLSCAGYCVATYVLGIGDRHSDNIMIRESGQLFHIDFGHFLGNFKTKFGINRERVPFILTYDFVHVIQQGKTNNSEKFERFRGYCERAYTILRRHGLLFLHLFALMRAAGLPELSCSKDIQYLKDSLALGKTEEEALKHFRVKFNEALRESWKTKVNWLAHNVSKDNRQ

`CCc1ccccc1-n1c(Cn2nc(C#C[C@@H](C)O)c3c(N)ncnc32)nc2scc(C)c2c1=O` displayed an IC50 of less than 100 nM.

As to `Cc1csc2nc(Cn3nc(-c4ccc(Cl)c(O)c4)c4c(N)ncnc43)n(-c3ccccc3F)c(=O)c12`, the IC50 is less than 100 nM. In the case of `Cc1ccccc1-n1c(Cn2nc(Br)c3c(N)ncnc32)nc2scc(C)c2c1=O` it was less than 100 nM; in that of `Cc1ccccc1-n1c(Cn2nc(Br)c3c(N)ncnc32)nc2nccc(C)c2c1=O`, less than 100 nM. In the case of `Cc1cccc2cc(Cn3nc(I)c4c(N)ncnc43)n(C3CCC3)c(=O)c12` it was less than 100 nM; in that of `Cc1ccccc1-n1c(Cn2nc(-c3cccc(O)c3)c3c(N)nccc32)cc2cccc(C)c2c1=O`, less than 100 nM. In the case of `Cc1cccc2cc(Cn3nc(-c4cn[nH]c4)c4c(N)ncnc43)n(-c3cccc(F)c3)c(=O)c12` it was less than 100 nM; in that of `Cc1cccc2cc(Cn3nc(-c4cccc(O)c4)c4c(N)ncnc43)n(C3CCCCC3)c(=O)c12`, less than 100 nM. In turn, `Nc1ncnc2c1c(-c1cccc(O)c1)nn2Cc1cc2cccc(Cl)c2c(=O)n1C1CC1` came in with an IC50 of less than 100 nM.

`Cc1ccccc1-n1c(Cn2nc(C#C[C@@H](C)O)c3c(N)ncnc32)cc2nccc(C)c2c1=O` gave an IC50 of less than 100 nM. In the case of `CCc1ccccc1-n1c(Cn2nc(C#C[C@@H](C)O)c3c(N)ncnc32)cc2cccc(C)c2c1=O` it was less than 100 nM; in that of `Cc1cccc2cc(Cn3nc(-c4ccc(Cl)c(O)c4)c4c(N)ncnc43)n(C(C)C)c(=O)c12`, less than 100 nM. In the case of `Cc1cccc2cc(Cn3nc(C#N)c4c(N)ncnc43)n(-c3ccccc3F)c(=O)c12` it was less than 100 nM; in that of `Cc1cccc2cc(Cn3nc(C#CCO)c4c(N)ncnc43)n(-c3ccccc3F)c(=O)c12`, less than 100 nM; in that of `Cc1ccccc1-n1c(Cn2nc(-c3cc(O)cc(F)c3)c3c(N)ncnc32)nc2cnn(C)c2c1=O`, less than 100 nM. As for `Cc1cccc2cc(Cn3nc(-c4cn[nH]c4)c4c(N)ncnc43)n(-c3ccccc3Cl)c(=O)c12`, the IC50 was less than 100 nM. As for `Cc1ccccc1-n1c(Cn2nc(-c3cccc(O)c3)c3c(N)ncnc32)nc2cnn(C)c2c1=O`, the IC50 was less than 100 nM. The result for `Cc1cccc2cc(Cn3nc(-c4cc(O)cc(F)c4)c4c(N)ncnc43)n(-c3ccccc3OCCN3CCOCC3)c(=O)c12` reads less than 100 nM.

As to `COc1ccccc1-n1c(Cn2nc(C#C[C@@H](C)O)c3c(N)ncnc32)cc2cccc(C)c2c1=O`, the IC50 is less than 100 nM. In the case of `Cc1ccccc1-n1c(Cn2nc(-c3cc(O)cc(F)c3)c3c(N)ncnc32)cc2cccc(F)c2c1=O` it was less than 100 nM; in that of `Cc1cccnc1-n1c(Cn2nc(-c3cccc(O)c3)c3c(N)ncnc32)cc2cccc(C)c2c1=O`, less than 100 nM. In the case of `Cc1ccccc1-n1c(Cn2nc(-c3cc(O)cc(F)c3)c3c(N)ncnc32)nc2scc(C(F)(F)F)c2c1=O` it was less than 100 nM. Turning to `Cc1cccc2cc(Cn3nc(-c4cc(O)cc(F)c4)c4c(N)ncnc43)n(C(C)C)c(=O)c12`, the IC50 is less than 100 nM.

`Cc1ccccc1-n1c(Cn2nc(-c3cc(O)cc(F)c3)c3c(N)nccc32)cc2cccc(C)c2c1=O` came in with an IC50 of less than 100 nM. The result for `CC(C)n1c(Cn2nc(-c3cc(O)cc(F)c3)c3c(N)ncnc32)cc2cccc(Cl)c2c1=O` reads less than 100 nM; that for `CC(C)n1c(Cn2nc(-c3cccc(O)c3)c3c(N)ncnc32)cc2ccccc2c1=O`, less than 100 nM; that for `Cc1cccc2cc(Cn3nc(C#C[C@@H](C)O)c4c(N)ncnc43)n(-c3ccccc3O)c(=O)c12`, less than 100 nM. The result for `Cc1ccccc1-n1c(Cn2nc(I)c3c(N)ncnc32)nc2scc(C)c2c1=O` reads less than 100 nM.

As for `Cc1ccccc1-n1c(Cn2nc(Br)c3c(N)ncnc32)nc2sc(C)c(C)c2c1=O`, the IC50 is less than 100 nM. For `Cc1cccc2cc(Cn3nc(-c4cccc(O)c4)c4c(N)ncnc43)n(C3CCCC3)c(=O)c12`, the IC50 is less than 100 nM. `Cc1ccnc2cc(Cn3nc(-c4cc(O)cc(F)c4)c4c(N)ncnc43)n(-c3ccccc3F)c(=O)c12` gave an IC50 of less than 100 nM.

The values are drawn from the Kinase Knowledgebase extract (Sharma et al. 2016).
